Results from patent publication US4691014A, “Cephalosporin compounds” (Kaken Pharmaceutical Co., Ltd., priority 1984, dated 1987).
Converted amounts (≈) assume the structure as drawn.

Columns and labels:
Format in all cases: cell-based
Escherichia coli JC-2 = assay: Minimum inhibitory concentration against Escherichia coli JC-2; settings: JC2
Proteus vulgaris GN-76 = assay: Minimum inhibitory concentration against Proteus vulgaris GN-76; settings: GN76
[1] = system: Staphylococcus aureus JC-1; assay: Minimum inhibitory concentration against Staphylococcus aureus JC-1; settings: JC1
[2] = system: Pseudomonus aeruginsoa Y-1; assay: Minimum inhibitory concentration against Pseudomonus aeruginsoa Y-1; settings: Pseudomonas aeruginosa, Y1
[3] = system: Pseudomonus aeruginosa GN1036; assay: Minimum inhibitory concentration against Pseudomonus aeruginosa GN1036; settings: Pseudomonas aeruginosa
[4] = system: Klebsiella pneumoniae KC-1; assay: Minimum inhibitory concentration against Klebsiella pneumoniae KC-1; settings: KC1

Compound | MIC (Escherichia coli JC-2) | MIC (Proteus vulgaris GN-76) | MIC [1] | MIC [2] | MIC [3] | MIC [4]
CO/N=C(\C(=O)N[C@@H]1C(=O)N2C(C(=O)O)=C(COC(C)=O)CS[C@H]12)c1csc(N)n1 [Cefotaxime, reference compound] | 0.1 µg/mL (≈ 0.22 µM) | 0.05 µg/mL (≈ 0.11 µM) | 6.25 µg/mL (≈ 13.7 µM) | 12.5 µg/mL (≈ 27.4 µM) | 12.5 µg/mL (≈ 27.4 µM) | –
CC(=O)OCC1=C(C(=O)O)N2C(=O)[C@@H](NC(=O)/C(=N\OCC(=O)c3ccc(OC(C)=O)c(OC(C)=O)c3)c3coc(N)n3)[C@H]2SC1 [Example 1, 7β-[2-(2-aminooxazol-4-yl)-2-Z-(3,4-diacetoxybenzoylmethoxyimino)acetamido]cephalosporanic acid] | 0.78 µg/mL (≈ 1.18 µM) | 1.56 µg/mL (≈ 2.37 µM) | 3.12 µg/mL (≈ 4.73 µM) | 0.1 µg/mL (≈ 0.152 µM) | 0.78 µg/mL (≈ 1.18 µM) | 0.2 µg/mL (≈ 0.303 µM)
CC(=O)Oc1ccc(C(=O)CO/N=C(\C(=O)N[C@@H]2C(=O)N3C(C(=O)O)=C(CSc4nnnn4C)CS[C@H]23)c2coc(N)n2)cc1OC(C)=O [Example 2, 7β-[2-(2-aminooxazol-4-yl)-2-Z-(3,4-diacetoxybenzoylmethoxyimino)acetamido]-3-(1-methyl-1H-tetrazol-5-yl)thiomethyl-3-cephem-4-carboxylic acid] | 0.2 µg/mL (≈ 0.279 µM) | 1.56 µg/mL (≈ 2.18 µM) | 3.12 µg/mL (≈ 4.36 µM) | 0.05 µg/mL (≈ 0.0699 µM) | 0.2 µg/mL (≈ 0.279 µM) | 0.05 µg/mL (≈ 0.0699 µM)
CC(=O)Oc1ccc(C(=O)CO/N=C(\C(=O)N[C@@H]2C(=O)N3C(C(=O)O)=C(CSc4nnnn4CC(=O)O)CS[C@H]23)c2coc(N)n2)cc1OC(C)=O [Example 3, 7β-[2-(2-aminooxazol-4-yl)-2-Z-(3,4-diacetoxybenzoylmethoxyimino)]acetamido-3-(1-carboxymethyl-1H-tetrazol-5-yl)thiomethyl-3-cephem-4-carboxylicacid] | 0.2 µg/mL (≈ 0.263 µM) | 1.56 µg/mL (≈ 2.05 µM) | 12.5 µg/mL (≈ 16.5 µM) | < 0.05 µg/mL | 0.2 µg/mL (≈ 0.263 µM) | 0.05 µg/mL (≈ 0.0658 µM)
CC(=O)OCC1=C(C(=O)O)N2C(=O)[C@@H](NC(=O)/C(=N\OC(=O)c3ccc(OC(C)=O)c(OC(C)=O)c3)c3coc(N)n3)[C@H]2SC1 [Example 4, 7β-[2-(2-aminooxazol-4-yl)-2-Z-(3,4-diacetoxybenzoyloxyimino)acetamido]cephalosporanic acid] | 0.2 µg/mL (≈ 0.31 µM) | 0.39 µg/mL (≈ 0.604 µM) | 1.56 µg/mL (≈ 2.42 µM) | 0.1 µg/mL (≈ 0.155 µM) | 0.78 µg/mL (≈ 1.21 µM) | 0.2 µg/mL (≈ 0.31 µM)
CC(=O)Oc1ccc(C(=O)O/N=C(\C(=O)N[C@@H]2C(=O)N3C(C(=O)O)=C(CSc4nnnn4C)CS[C@H]23)c2coc(N)n2)cc1OC(C)=O [Example 5, 7β-[2-(2-aminooxazol-4-yl)-2-Z-(3,4-diacetoxybenzoyloxyimino)acetamido]-3-(1-methyl-1H-tetrazol-5-yl)thiomethyl-3-cephem-4-carboxylic acid] | 0.39 µg/mL (≈ 0.556 µM) | 0.39 µg/mL (≈ 0.556 µM) | 1.56 µg/mL (≈ 2.22 µM) | 0.1 µg/mL (≈ 0.143 µM) | 0.39 µg/mL (≈ 0.556 µM) | 0.2 µg/mL (≈ 0.285 µM)
CC(=O)Oc1ccc(C(=O)O/N=C(\C(=O)N[C@@H]2C(=O)N3C(C(=O)O)=C(CSc4nnc(C)s4)CS[C@H]23)c2coc(N)n2)cc1OC(C)=O [Example 6, 7β-[2-(2-aminooxazol-4-yl)-2-Z-(3,4-diacetoxybenzoyloxyimino)acetamido]-3-(2-methyl-1,3,4-thiadiazol-5-yl)thiomethyl-3-cephem-4-carboxylic acid] | 0.2 µg/mL (≈ 0.279 µM) | 0.2 µg/mL (≈ 0.279 µM) | 3.12 µg/mL (≈ 4.35 µM) | 0.1 µg/mL (≈ 0.139 µM) | 0.39 µg/mL (≈ 0.543 µM) | 0.05 µg/mL (≈ 0.0697 µM)
CC(=O)Oc1ccc(C(=O)O/N=C(\C(=O)N[C@@H]2C(=O)N3C(C(=O)O)=C(CSc4nnnn4CC(=O)O)CS[C@H]23)c2coc(N)n2)cc1OC(C)=O [Example 7, 7β-[2-(2-aminooxazol-4-yl)-2-Z-(3,4-diacetoxybenzoyloxyimino)acetamido]-3-(1-carboxymethyl-1H-tetrazol-5-yl)thiomethyl-3-cephem-4-carboxylic acid] | 0.05 µg/mL (≈ 0.0671 µM) | 0.1 µg/mL (≈ 0.134 µM) | 12.5 µg/mL (≈ 16.8 µM) | < 0.05 µg/mL | 0.05 µg/mL (≈ 0.0671 µM) | < 0.05 µg/mL
CC(=O)Oc1cc(C(=O)O/N=C(\C(=O)N[C@@H]2C(=O)N3C(C(=O)O)=C(CSc4nnnn4C)CS[C@H]23)c2coc(N)n2)cc(OC(C)=O)c1OC(C)=O [Example 8, 7β-[2-(2-aminooxazol-4-yl)-2-Z-(3,4,5-triacetoxybenzoyloxyimino)acetamido]-3-(1-methyl-1H-tetrazol-5-yl)thiomethyl-3-cephem-4-carboxylic acid] | 0.1 µg/mL (≈ 0.132 µM) | 0.39 µg/mL (≈ 0.513 µM) | 1.56 µg/mL (≈ 2.05 µM) | 0.1 µg/mL (≈ 0.132 µM) | 0.39 µg/mL (≈ 0.513 µM) | 0.1 µg/mL (≈ 0.132 µM)
CCOC(=O)Oc1ccc(C(=O)O/N=C(\C(=O)N[C@@H]2C(=O)N3C(C(=O)O)=C(CSc4nnnn4C)CS[C@H]23)c2coc(N)n2)cc1OC(=O)OCC [Example 9, 7β-[2-(2-aminooxazol-4-yl)-2-Z-(3,4-diethoxycarbonyloxybenzoyloxyimino)acetamido]-3-(1-methyl-1H-tetrazol-5-yl)thiomethyl-3-cephem-4-carboxylic acid] | 0.2 µg/mL (≈ 0.263 µM) | 0.2 µg/mL (≈ 0.263 µM) | 3.12 µg/mL (≈ 4.1 µM) | 0.05 µg/mL (≈ 0.0656 µM) | 0.2 µg/mL (≈ 0.263 µM) | 0.05 µg/mL (≈ 0.0656 µM)
CC(=O)Oc1cc(C(=O)O/N=C(\C(=O)N[C@@H]2C(=O)N3C(C(=O)O)=C(CSc4nnnn4CC(=O)O)CS[C@H]23)c2coc(N)n2)cc(OC(C)=O)c1OC(C)=O [Example 10, 7β-[2-(2-aminooxazol-4-yl)-2-Z-(3,4,5-triacetoxybenzoyloxyimino)acetamido]-3-(1-carboxymethyl-1H-tetrazol-5-yl)thiomethyl-3-cephem-4-carboxylic acid] | 0.05 µg/mL (≈ 0.0622 µM) | 0.05 µg/mL (≈ 0.0622 µM) | 6.25 µg/mL (≈ 7.78 µM) | 0.1 µg/mL (≈ 0.124 µM) | 0.39 µg/mL (≈ 0.485 µM) | 0.2 µg/mL (≈ 0.249 µM)
